Test results: patent US20210269434A1, “TRICYCLIC COMPOUNDS AS INHIBITORS OF KRAS” (Incyte Corporation, priority 2020, published 2021)

Experiments:
[1] = molecular target: KRAS G12C (Homo sapiens, UniProt P01116, G12C); assay: GDP-GTP exchange assay (KRAS_G12C exchange); assay type: biochemical; details: bodipy-GDP loaded KRAS G12C 2.5 nM, SOS1 150 nM, GppNHp; 2 hours pre-incubation, 2 hours reaction; read-out: G12C_exchange
Procedure, shortened: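 Fluorescence exchange of bodipy-GDP for GppNHp, SOS1-driven, read at 485/520 nm; IC50 from four-parameter variable-slope fit. Both mutants used 2.5 nM final labelled protein and a 2 h compound pre-incubation. G12C reaction had 500 uM GppNHp and 150 nM SOS1 for 2 h; G12D ran 4 h.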

[2] = system: MIA PaCa-2 (KRAS G12C) cells; assay: Cellular pERK HTRF assay (KRAS_G12C pERK); assay type: cell-based, human; details: Homo sapiens, MIA PaCa-2, 4 hours incubation, read-out: G12C_pERK
Procedure, shortened: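 MIA PaCa-2 cells plated overnight, then exposed to compound for 4 h at 37 °C (G12C compounds). Phospho-ERK1/2 measured in lysates by HTRF (665/620 nm) after overnight antibody incubation; IC50 from percent inhibition versus log concentration.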

Sequence of KRAS G12C (P01116 1-188 isoform P01116-2 G12C): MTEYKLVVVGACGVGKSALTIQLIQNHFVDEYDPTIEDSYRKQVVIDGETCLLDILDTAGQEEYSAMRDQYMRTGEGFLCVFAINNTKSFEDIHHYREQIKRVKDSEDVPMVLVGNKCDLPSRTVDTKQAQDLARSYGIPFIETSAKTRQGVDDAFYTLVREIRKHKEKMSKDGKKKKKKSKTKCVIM

Row | Compound | IC50 [1] [nM] | IC50 [2] [nM]
1 | CC#CC(=O)N1CC[C@H](n2nnc3c(N4CC(C)(N(C)C)C4)nc4c(F)c(-c5cccc(Cl)c5C)c(C(F)(F)F)cc4c32)C[C@H]1CC#N [Example 239a, 2-((2S,4S)-1-(but-2-ynoyl)-4-(7-(3-chloro-2-methyl-phenyl)-4-(3-(dimethyl-amino)-3-methylazetidin-1-yl)-6-fluoro-8-(trifluoro-methyl)-1H-[1,2,3]triazolo-[4,5-c]quinolin-1-yl)piperidin-2-yl)acetonitrile] | ≤ 100 | ≤ 100
2 | Cc1c(Cl)cccc1-c1c(C(F)(F)F)cc2c(nc(N3CC(C)(N(C)C)C3)c3nnn([C@H]4CCN(C(=O)/C=C/CN(C)C)[C@H](CC#N)C4)c32)c1F [Example 240, 2-((2S,4S)-4-(7-(3-chloro-2-methylphenyl)-4-(3-(dimethylamino)-3-methylazetidin-1-yl)-6-fluoro-8-(trifluoromethyl)-1H-[1,2,3]triazolo[4,5-c]quinolin-1-yl)-1-((E)-4-(dimethylamino)but-2-enoyl)piperidin-2-yl)acetonitrile] | ≤ 100 | ≤ 100
3 | CC#CC(=O)N1CC[C@H](n2nnc3c(OC[C@@H]4CCCN4C)nc4c(F)c(-c5cccc(Cl)c5C)c(CCC#N)cc4c32)C[C@H]1CC#N [Example 241a, 3-(1-((2S,4S)-1-(but-2-ynoyl)-2-(cyanomethyl)-piperidin-4-yl)-7-(3-chloro-2-methylphenyl)-6-fluoro-4-(((S)-1-methylpyrrolidin-2-yl)methoxy)-1H-[1,2,3]triazolo[4,5-c]quinolin-8-yl)propanenitrile] | ≤ 100 | ≤ 100
4 | COc1c(Cl)cccc1-c1c(C(F)(F)F)cc2c(nc(N3CC(C)(N(C)C)C3)c3nnn([C@H]4CCN(C(=O)/C=C/CN(C)C)[C@H](CC#N)C4)c32)c1F [Example 244, 2-((2S,4S)-4-(7-(3-chloro-2-methoxyphenyl)-4-(3-(dimethylamino)-3-methylazetidin-1-yl)-6-fluoro-8-(trifluoromethyl)-1H-[1,2,3]triazolo[4,5-c]quinolin-1-yl)-1-((E)-4-(dimethylamino)but-2-enoyl)piperidin-2-yl)acetonitrile] | ≤ 100 | ≤ 100
5 | COc1c(C)cccc1-c1c(C(F)(F)F)cc2c(nc(N3CC(C)(N(C)C)C3)c3nnn([C@H]4CCN(C(=O)/C=C/CN(C)C)[C@H](CC#N)C4)c32)c1F [Example 246, 2-((2S,4S)-4-(7-(2-methoxy-3-methylphenyl)-4-(3-(dimethylamino)-3-methylazetidin-1-yl)-6-fluoro-8-(trifluoromethyl)-1H-[1,2,3]triazolo[4,5-c]quinolin-1-yl)-1-((E)-4-(dimethylamino)but-2-enoyl)piperidin-2-yl)acetonitrile] | ≤ 100 | ≤ 100
6 | CC#CC(=O)N1CC[C@H](n2nnc3c(N4CC(N(C)C)C4)nc4c(F)c(-c5cccc(C)c5Cl)c(C)cc4c32)C[C@H]1CC#N [Example 250, 2-((2S,4S)-1-(but-2-ynoyl)-4-(7-(2-chloro-3-methylphenyl)-4-(3-(dimethylamino)azetidin-1-yl)-6-fluoro-8-methyl-1H-[1,2,3]triazolo[4,5-c]quinolin-1-yl)piperidin-2-yl)acetonitrile] | ≤ 100 | ≤ 100
7 | C=CC(=O)N1CC[C@H](n2nnc3c(OC[C@@H]4CCCN4C)nc4c(F)c(-c5cccc(C)c5Cl)c(C)cc4c32)C[C@H]1CC#N [Example 251, 2-((2S,4S)-1-acryloyl-4-(7-(2-chloro-3-methylphenyl)-6-fluoro-8-methyl-4-(((S)-1-methylpyrrolidin-2-yl)methoxy)-1H-[1,2,3]triazolo[4,5-c]quinolin-1-yl)piperidin-2-yl)acetonitrile] | ≤ 100 | ≤ 100
8 | Cc1cccc(-c2c(C)cc3c(nc(OC[C@@H]4CCCN4C)c4nnn([C@H]5CCN(C(=O)/C=C/CF)[C@H](CC#N)C5)c43)c2F)c1Cl [Example 253, 2-((2S,4S)-4-(7-(2-chloro-3-methylphenyl)-6-fluoro-8-methyl-4-(((S)-1-methylpyrrolidin-2-yl)methoxy)-1H-[1,2,3]triazolo[4,5-c]quinolin-1-yl)-1-((E)-4-fluorobut-2-enoyl)piperidin-2-yl)acetonitrile] | ≤ 100 | ≤ 100
9 | CC#CC(=O)N1CC[C@H](n2nnc3c(OC[C@@H]4CCCN4C)nc4c(F)c(-c5cccc(C)c5Cl)c(C)cc4c32)C[C@H]1CC#N [Example 254, 2-((2S,4S)-1-(but-2-ynoyl)-4-(7-(2-chloro-3-methylphenyl)-6-fluoro-8-methyl-4-(((S)-1-methylpyrrolidin-2-yl)methoxy)-1H-[1,2,3]triazolo[4,5-c]quinolin-1-yl)piperidin-2-yl)acetonitrile] | ≤ 100 | ≤ 100
10 | CC#CC(=O)N1CC[C@H](n2nnc3c(N4CC(C)(N(C)C)C4)nc4c(F)c(-c5cccc(C)c5Cl)c(C)cc4c32)C[C@H]1CC#N [Example 258, 2-((2S,4S)-1-(but-2-ynoyl)-4-(7-(2-chloro-3-methylphenyl)-4-(3-(dimethylamino)-3-methylazetidin-1-yl)-6-fluoro-8-methyl-1H-[1,2,3]triazolo[4,5-c]quinolin-1-yl)piperidin-2-yl)acetonitrile] | ≤ 100 | ≤ 100

The remaining lines, values ahead:

Row | IC50 [1] [nM] | IC50 [2] [nM] | Compound
11 | ≤ 100 | ≤ 100 | Cc1cccc(-c2c(C(F)(F)F)cc3c(nc(N4CC(C)(N(C)C)C4)c4nnn([C@H]5CCN(C(=O)/C=C/CN(C)C)[C@H](CC#N)C5)c43)c2F)c1Cl [Example 237, 2-((2S,4S)-4-(7-(2-chloro-3-methylphenyl)-4-(3-(dimethylamino)-3-methylazetidin-1-yl)-6-fluoro-8-(trifluoromethyl)-1H-[1,2,3]triazolo[4,5-c]quinolin-1-yl)-1-((E)-4-(dimethylamino)but-2-enoyl)piperidin-2-yl)acetonitrile]
12 | ≤ 100 | ≤ 100 | C=CC(=O)N1CC[C@H](n2nnc3c(N4CC(N(C)C)C4)nc4c(F)c(-c5cccc(C)c5Cl)c(C)cc4c32)C[C@H]1CC#N [Example 247, 2-((2S,4S)-1-acryloyl-4-(7-(2-chloro-3-methylphenyl)-4-(3-(dimethylamino)azetidin-1-yl)-6-fluoro-8-methyl-1H-[1,2,3]triazolo[4,5-c]quinolin-1-yl)piperidin-2-yl)acetonitrile]
13 | ≤ 100 | ≤ 100 | Cc1cccc(-c2c(C)cc3c(nc(N4CC(N(C)C)C4)c4nnn([C@H]5CCN(C(=O)/C=C/CF)[C@H](CC#N)C5)c43)c2F)c1Cl [Example 248, 2-((2S,4S)-4-(7-(2-chloro-3-methylphenyl)-4-(3-(dimethylamino)azetidin-1-yl)-6-fluoro-8-methyl-1H-[1,2,3]triazolo[4,5-c]quinolin-1-yl)-1-((E)-4-fluorobut-2-enoyl)piperidin-2-yl)acetonitrile]
14 | ≤ 100 | ≤ 100 | Cc1cccc(-c2c(C)cc3c(nc(N4CC(N(C)C)C4)c4nnn([C@H]5CCN(C(=O)/C=C/CN(C)C)[C@H](CC#N)C5)c43)c2F)c1Cl [Example 249, 2-((2S,4S)-4-(7-(2-chloro-3-methylphenyl)-4-(3-(dimethylamino)azetidin-1-yl)-6-fluoro-8-methyl-1H-[1,2,3]triazolo[4,5-c]quinolin-1-yl)-1-((E)-4-(dimethylamino)but-2-enoyl)piperidin-2-yl)acetonitrile]
15 | ≤ 100 | ≤ 100 | Cc1cccc(-c2c(C)cc3c(nc(-n4ccnc4C)c4nnn([C@H]5CCN(C(=O)/C=C/CN(C)C)[C@H](CC#N)C5)c43)c2F)c1Cl [Example 252, 2-((2S,4S)-4-(7-(2-chloro-3-methylphenyl)-6-fluoro-8-methyl-4-(2-methyl-1H-imidazol-1-yl)-1H-[1,2,3]triazolo[4,5-c]quinolin-1-yl)-1-((E)-4-(dimethylamino)but-2-enoyl)piperidin-2-yl)acetonitrile]
16 | ≤ 100 | ≤ 100 | C=CC(=O)N1CC[C@H](n2nnc3c(N4CC(C)(N(C)C)C4)nc4c(F)c(-c5cccc(C)c5Cl)c(C)cc4c32)C[C@H]1CC#N [Example 255, 2-((2S,4S)-1-acryloyl-4-(7-(2-chloro-3-methylphenyl)-4-(3-(dimethylamino)-3-methylazetidin-1-yl)-6-fluoro-8-methyl-1H-[1,2,3]triazolo[4,5-c]quinolin-1-yl)piperidin-2-yl)acetonitrile]
17 | ≤ 100 | ≤ 100 | Cc1cccc(-c2c(C)cc3c(nc(N4CC(C)(N(C)C)C4)c4nnn([C@H]5CCN(C(=O)/C=C/CF)[C@H](CC#N)C5)c43)c2F)c1Cl [Example 256, 2-((2S,4S)-4-(7-(2-chloro-3-methylphenyl)-4-(3-(dimethylamino)-3-methylazetidin-1-yl)-6-fluoro-8-methyl-1H-[1,2,3]triazolo[4,5-c]quinolin-1-yl)-1-((E)-4-fluorobut-2-enoyl)piperidin-2-yl)acetonitrile]
18 | ≤ 100 | ≤ 100 | Cc1cccc(-c2c(C)cc3c(nc(N4CC(C)(N(C)C)C4)c4nnn([C@H]5CCN(C(=O)/C=C/CN(C)C)[C@H](CC#N)C5)c43)c2F)c1Cl [Example 257, 2-((2S,4S)-4-(7-(2-chloro-3-methylphenyl)-4-(3-(dimethylamino)-3-methylazetidin-1-yl)-6-fluoro-8-methyl-1H-[1,2,3]triazolo[4,5-c]quinolin-1-yl)-1-((E)-4-(dimethylamino)but-2-enoyl)piperidin-2-yl)acetonitrile]
